# Patent publication US9545386B2, “Methods of treating infectious diseases” (SLIPPERY ROCK UNIVERSITY FOUNDATION, INC., priority 2007, dated 2017)
# Key:
# H. contortus = settings: background statement; cited from earlier work
# P. trichosuri = settings: doramectin 0.6 mg/kg, in vivo, p<0.05, Ralston et al. (2001); cited from earlier work
# [1] = test system: A. canimun life-cycle stages; settings: in vitro, Wang et al. (1989), cited from earlier work
# A. caninum = settings: in vivo; cited from earlier work
# [2] = test system: Haemonchus contortus infective larvae; assay: In vitro bioassay of infective larvae, immobilization and lethal doses (eosin, Probit); format: cell-based; settings: H. contortus infective larvae; for 48 hr ID50 ± 95% confidence intervals: immobilize 50%; for 48 hr ID50 ± 95% confidence intervals / 48 hr ID90 ± 95% confidence intervals / 48 hr LD50 ± 95% confidence intervals / 48 hr LD90 ± 95% confidence intervals: 48 hr in vitro; for 48 hr ID90 ± 95% confidence intervals: immobilize 90%; for 48 hr LD50 ± 95% confidence intervals: kill 50%; for 48 hr LD90 ± 95% confidence intervals: kill 90%
# Method: (§1) Strongyloides stercoralis infective larvae were harvested from charcoal coprocultures in nematode saline solution. The larvae were supplied by the Parasitology Laboratory, Department of Pathobiology, University of Pennsylvania. The strain of larvae was a human strain of the parasitic nematode that had been maintained for over ten years in canines by daily prednisolone treatment (2 mg/kg per os, once daily. Parastrongyloides trichosuri and Ancylostoma caninum infective larvae were also supplied by the same source as for S. stercoralis. Haemonchus contortus infective larvae were harvested from charcoal coprocultures in nematode saline solution prepared from infected sheep feces obtained from Merck Parasites Laboratory.
# (§2) The 24 hr 50% and 90% immobilization doses (ID50 and ID90), and 50% and 90% lethal doses (LD50 and LD90) of eryngial (mg/ml) were investigated in vitro using infective larvae of all four parasitic nematodes. Each species was exposed to a range of eryngial dilutions by adding known volumes of a homogeneous ‘wormy’ solution (infective larvae in nematode saline solution) to known volumes of an eryngial stock suspension (10 mg/ml of nematode saline solution). Each dilution, including the control (0 mg/ml eryngial), was prepared in triplicate and also contained eosin (0.01%, w/v), which was used as an indicator of mortality, and Triton X-100 (1.0%, v/v).
# (§3) Using S. stercoralis, P. trichosuri, H. contortus and A. caninum infective larvae, eryngial dilutions, excluding the controls, ranged from 0.05 to 1.15 mg/ml; 0.01 to 1.0 mg/ml; 0.5 to 2.0 mg/ml; and 0.8 to 3.0 mg/ml, respectively. Sub-sample (10 μl) counts of larvae that were mobile, immobile but not stained and stained, were done at the start of each bioassay and at 24 hr intervals for two days. Each sub-sample contained approximately 50 infective larvae.
# (§4) The 48-hr immobilization doses (ID50 and ID90) and lethal doses (LD50 and LD90) of eryngial and ivermectin also were investigated, using S. stercoralis and H. contortus infective larvae. Each bioassay was conducted as described hereinabove. Using S. stercoralis and H. contortus infective larvae, ivermectin dilutions (not including the controls) ranged from 0.03 to 0.3 mg/ml and from 0.009 to 0.1 mg/ml, respectively.
# (§5) Probit analysis was used to determine 24 hr and 48 hr immobilization and lethal doses for eryngial and ivermectin, respectively.
# [3] = test system: Strongyloides stercoralis infective larvae; assay: as above; format: cell-based; settings: S. stercoralis infective larvae, 48 hr in vitro; for 48 hr ID50 ± 95% confidence intervals: immobilize 50%; for 48 hr ID90 ± 95% confidence intervals: immobilize 90%; for 48 hr LD50 ± 95% confidence intervals: kill 50%; for 48 hr LD90 ± 95% confidence intervals: kill 90%
# Method: as §1, §2, §3, §4, §5
compound,measurement,setting,value
"CCCSc1ccc2nc(NC(=O)OC)[nH]c2c1 [Albendazole, albendazole]",efficacy rates against H. contortus infections,H. contortus,100%
CO[C@H]1C[C@H](O[C@H]2[C@H](C)O[C@@H](O[C@@H]3/C(C)=C/C[C@@H]4C[C@@H](C[C@]5(C=C[C@H](C)[C@@H](C6CCCCC6)O5)O4)OC(=O)[C@@H]4C=C(C)[C@@H](O)[C@H]5OC/C(=C\C=C\[C@@H]3C)[C@]54O)C[C@@H]2OC)O[C@@H](C)[C@@H]1O [doramectin],reduction of P. trichosuri infection in possums,P. trichosuri,99%
c1ccc(C2CN3CCSC3=N2)cc1 (stereo not shown) [tetramisole],efficacy rates against H. contortus infections,H. contortus,100%
ivermectin [reference compound],dose that killed L3 larvae,[1]; A. caninum L3 larvae,2.5 mg/mL
same,dose that killed adult worms,[1]; A. caninum adult worms,560 mg/mL
same,dose detrimental to eggs inside the uterine tissue of female worms,[1]; A. caninum eggs,1000 mg/mL
same,effectiveness in infected dogs,A. caninum,clearing the infection completely
same,48 hr ID50 ± 95% confidence intervals,[2],0.011 (0.001-0.022) mg/ml
same,48 hr ID50 ± 95% confidence intervals,[2]; listed as ivermectin,0.011 mg/mL
same,48 hr ID90 ± 95% confidence intervals,[2],0.059 (0.043-0.092) mg/ml
same,48 hr ID90 ± 95% confidence intervals,[2]; listed as ivermectin,0.059 mg/mL
same,times greater in potency than eryngial (48 hr ID90),[2]; ivermectin vs eryngial,12.9 times
same,times more effective than eryngial at immobilizing (48 hr ID50),[2]; ivermectin vs eryngial,28.5 times
same,48 hr LD50 ± 95% confidence intervals,[2],4.990 (4.572-5.954) mg/ml
same,48 hr LD50 ± 95% confidence intervals,[2]; listed as ivermectin,4.990 mg/mL
same,48 hr LD90 ± 95% confidence intervals,[2],6.949 (5.858-10.10) mg/ml
same,48 hr LD90 ± 95% confidence intervals,[2]; listed as ivermectin,6.949 mg/mL
same,48 hr ID50 ± 95% confidence intervals,[3],0.136 (0.114-0.157) mg/ml
same,48 hr ID50 ± 95% confidence intervals,[3]; listed as ivermectin,0.136 mg/mL
same,48 hr ID90 ± 95% confidence intervals,[3],0.297 (0.251-0.377) mg/ml
same,48 hr ID90 ± 95% confidence intervals,[3]; listed as ivermectin,0.297 mg/mL
same,48 hr LD50 ± 95% confidence intervals,[3],0.306 (0.203-0.442) mg/ml
same,48 hr LD50 ± 95% confidence intervals,[3]; listed as ivermectin,0.306 mg/mL
same,48 hr LD90 ± 95% confidence intervals,[3],1.038 (0.665-2.498) mg/ml
same,48 hr LD90 ± 95% confidence intervals,[3]; listed as ivermectin,1.038 mg/mL
